Reference: patent US7129073B2, “Regulation of neuronal function through metabotropic glutamate receptor signaling pathways” (The Rockefeller University, priority 2001, dated 2006)
“Also recorded” adds a separate entry of the source.

How the values were obtained:
HA-CK1ε = assay: 32P metabolic labeling and two-dimensional phosphopeptide mapping of HA-CK1ε in N2a cells; assay type: cell-based; conditions: DHPG 2 or 4 min; returned to 0 min level at ten min
MM2-CK1ε [1] = assay: kinase activity of Myc-MM2-CK1ε mutant immunoprecipitated from transfected N2a cells; assay type: cell-based; conditions: DHPG 100 μM 2 min, in the absence or presence of cyclosporin A
Procedure: Neuroblastoma N2a cells were cultured to 50–60% confluence in DMEM containing 5% fetal bovine serum. Four μg of the expression plasmid for HA-CK1ε or myc-MM2-CK1ε was transfected into N2a cells in 100 mm dishes using FuGENE6™. Twenty-four hours after transfection, cells were incubated at room temperature in phosphate-buffered Kreb's-Henseleit solution (Sigma) for 10 min and then with or without inhibitors for 30 min before treating with (S)-3,5-DHPG, for 2 min. Cells were then lysed in 1 ml of radio-immunoprecipitation (RIPA) buffer containing 1% NP-40, 150 mM NaCl, 0.1% SDS, 50 mM Tris, pH 8.0, 5 mM Na3VO4, 20 mM NaF, 20 mM β-glycerol-phosphate and protease inhibitors. Lysates were centrifuged at 10,000 g, and supernatants were used for immunoprecipitation and kinase assay.
For immunoprecipitation of CK1ε from N2a cells, lysates (1 mg of total protein) were precleared with 5 μl of mouse IgG (ICN) and 50 μl of protein A agarose for 30 min. Five μl (approximately 2 μg) of anti-HA or anti-myc antibody was added and samples were incubated for 1 h at 4° C. Five μl of anti-mouse rabbit IgG and 50 μl of protein A agarose were then added for 45 min. […]
CK1 assays were performed in a 30 μl assay volume with 2 μg of purified DARPP-32, 500 μM ATP and 5 μCi γ-^32P-ATP. […] Results were quantified using a Molecular Dynamics PHOSPHORIMAGER™. […]

MM2-CK1ε [2] = assay: phosphopeptide mapping of MM2-CK1ε in N2a cells; assay type: cell-based; conditions: DHPG 2 min
Procedure: Twenty-four hours after transfecting N2a cells with CK1ε expression plasmids, cells were incubated in 200 μCi/ml (NEN) ^32P-inorganic phosphate and phosphate-free serum-free DMEM for 2 h. […] Cells were treated with DHPG for various periods of time as indicated, harvested by lysis in RIPA buffer and clarified by centrifugation at 14,000×g for 10 min. Soluble extracts containing HA- or Myc-tagged proteins were immunoprecipitated with 12CA5 or 9E10 monoclonal antibody and protein A-agarose. The immunoprecipitates were eluted from the protein A-agarose and separated by SDS-PAGE on 10% gel. Proteins were stained briefly with Coomassie Brilliant Blue, the gels were dried, and the labeled proteins were visualized by autoradiography.
Radiolabeled protein bands were excised, rehydrated, de-stained and dried in a speedvac. The gel slices were minced and rehydrated in 75 μg/ml TPCK/trypsin in 50 mM NH4CO3H (1 ml final volume) for 24 h at 37° C. The supernatant was removed from the gel slices and then lyophilized to dryness. Recovery of tryptic phosphopeptides was determined by Cerenkov counting. The two-dimensional peptide mapping method was used to separate phosphopeptides (23). Lyophilized tryptic peptides were suspended in 10 μl of electrophoresis buffer (10% acetic acid and 1% pyridine, pH 3.5) and spotted onto thin-layer cellulose plates (20×20 cm, Analtech). […]

[3] = tested on: voltage-dependent Ca2+ channels; assay: whole-cell recordings of voltage-dependent Ca2+ channels in dissociated neostriatal neurons; assay type: cell-based, mouse; conditions: for effect on basal Ca2+ currents / effect on the enhancement of Ca2+ currents by DHPG: CK1–7 100 μM, butyrolactone 25 μM (FIG. 6)
Procedure: Neostriatal neurons from 3- to 4-week-old mice were acutely dissociated by using procedures similar to those disclosed in Eberwine et al. (1995, Prog. Brain Res. 105:117–126). Whole-cell current recordings used standard voltage-clamp techniques. The internal solution consisted of 180 mM N-methyl-D-glucamine, 40 mM Hepes, 4 mM MgCl2, 0.5 mM 1,2-bis(2-aminophenoxy)ethane-N,N,N′,N′-tetraacetate, 12 mM phosphocreatine, 2 mM Na2ATP, 0.2 mM Na3GTP, 0.1 mM leupeptin (pH 7.2–7.3), 265–270 mosm/liter. The external solution consisted of 135 mM NaCl, 20 mM CsCl, 1 mM MgCl2, 10 mM Hepes, 0.001 mM tetrodotoxin, 5 mM BaCl2, 10 mM glucose (pH 7.3), 300–305 mosm/liter. Recordings were obtained with an Axon Instruments 200B patch clamp amplifier that was controlled and monitored with an IBM PC running PCLAMP™ (v. 8) with a DigiData 1320 series interface (Axon Instruments, Foster City, Calif.). Electrode resistances were typically 2–4 MΩ in the bath. After seal rupture, series resistance (4–10 MΩ) was compensated (70–90%) and periodically monitored. Drugs were applied with a gravity-fed “sewer pipe” system. The array of application capillaries was positioned 250 μm from the cell under study. Solution changes were effected by altering the position of the array with a DC drive system controlled by a microprocessor-based controller (Newport-Klinger, Irvine, Calif.). Data analyses were performed with AXOGRAPH™ (Axon Instruments), […]™ (Albeck Software, Reading, Pa.), and […]™ (Abacus Concepts, Berkeley, Calif.).

CKI = assay: in vitro inhibitory potency of CKI-7 towards CKI; assay type: biochemical
Procedure: (§1) CKI may also regulate Cdk5 kinase activity in response to mGluR receptor activation, or vice versa. To examine these possibilities, experiments were performed with a CKI inhibitor, CKI-7. The crystal structure of the catalytic domain of casein kinase I complexed with CKI-7 provided evidence that CKI-7 achieves its selectivity for CKI by hydrophobic contacts and hydrogen bonding with the isoquinoline ring (Xu, R. M. et al. 1996. Proc. Natl. Acad. Sci. USA 93:6308–6313). In in vitro studies, the inhibitory potency (IC50 values) for CKI-7 towards CKI and Cdk5/p25 was determined.

Cdk5/p25 = Cdk5/p25 (Homo sapiens, UniProt Q00535); assay: in vitro inhibitory potency of CKI-7 towards Cdk5/p25; assay type: biochemical
Chain of Cdk5/p25 (Q00535 whole entry, species assumed): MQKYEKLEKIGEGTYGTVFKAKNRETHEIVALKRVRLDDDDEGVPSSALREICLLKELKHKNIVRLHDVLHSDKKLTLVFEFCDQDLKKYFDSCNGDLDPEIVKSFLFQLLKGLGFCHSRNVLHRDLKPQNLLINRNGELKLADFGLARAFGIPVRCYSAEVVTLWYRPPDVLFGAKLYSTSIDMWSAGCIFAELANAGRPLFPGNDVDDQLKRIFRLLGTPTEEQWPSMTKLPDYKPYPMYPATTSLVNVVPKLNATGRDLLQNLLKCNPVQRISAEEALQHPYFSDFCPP
Chain of Cdk5/p25 (Q15078 99-307 partner limits assumed, species assumed): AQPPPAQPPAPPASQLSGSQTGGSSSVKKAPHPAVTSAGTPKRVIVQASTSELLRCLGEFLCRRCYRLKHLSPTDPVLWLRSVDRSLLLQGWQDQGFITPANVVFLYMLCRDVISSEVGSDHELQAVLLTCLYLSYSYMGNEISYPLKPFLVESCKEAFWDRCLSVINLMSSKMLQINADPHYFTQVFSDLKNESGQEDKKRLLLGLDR
Procedure: as §1

Compound | effect on phosphorylation state of CK1ε (subset of acidic phosphopeptides) (HA-CK1ε) | effect on MM2-CK1ε activity (MM2-CK1ε [1]) | effect on phosphorylation of MM2-CK1ε (MM2-CK1ε [2]) | time to enhancement of Ca2+ currents ([3]; DHPG) | effect on Ca2+ currents ([3]; DHPG 100 μM, wild-type neurons) | effect of DHPG on Ca2+ channels in neurons from DARPP-32 knock-out mice ([3]; DHPG 100 μM, nine out of ten neurons) | IC50 (CKI) | IC50 (Cdk5/p25) | effect on basal Ca2+ currents [3] | effect on the enhancement of Ca2+ currents by DHPG ([3]; DHPG 100 μM) | effect on the enhancement of Ca2+ currents by DHPG ([3]; DHPG 100 μM, listed as CK1–7) | effect on basal Ca2+ currents ([3]; listed as CK1–7)
N[C@H](C(=O)O)c1cc(O)cc(O)c1 [DHPG, (S)-3,5-Dihydroxyphenylglycine] | rapid and transient dephosphorylation | no effect | no effect | ≤ 90 s | enhanced; also recorded: increased | completely eliminated; also recorded: no effect |  |  |  |  |  | 
NCCNS(=O)(=O)c1ccc(Cl)c2ccncc12 [CKI-7] |  |  |  |  |  |  | 15 µM | 200 µM | significant reduction | eliminated | attenuated | reduced
